Source: ChEMBL document CHEMBL5316319, “Targeting Death-Associated Protein Kinases for Treatment of Human Diseases: Recent Advances and Future Directions” (J Med Chem, 2023)
pIC50, pKd, pKi: −log10 of the molar value.

Experiments:
[1] = molecular target: T1, Death-associated protein kinase 1 (Homo sapiens, UniProt P53355); experiment: Inhibition of DAPK1 (unknown origin)
[2] = molecular target: T1, Death-associated protein kinase 1; experiment: Inhibition of DAPK1 (1 to 285 residues) (unknown origin) expressed in Escherichia coli using KKLNRTLSFAEPG as substrate in presence of ATP by fluoro-spark kinase assay
[3] = molecular target: T2, Serine/threonine-protein kinase pim-3 (Homo sapiens, UniProt Q86V86); experiment: Inhibition of human full length-His6 tagged PIM3 (1 to 326 residues) expressed in Escherichia coli BL21 (DE3) assessed as inhibition constant using RSRHSSYPAGT as peptide substrate incubated for 10 mins in presence of [gamma-32P]ATP by radiometric scintillation assay
[4] = molecular target: T3, Death-associated protein kinase 3 (Homo sapiens, UniProt O43293); experiment: Inhibition of human recombinant GST-fused DAPK3 (1 to 320 residues) expressed in Escherichia coli BL21 (DE3) assessed as inhibition constant using MYPT1 as peptide substrate incubated for 10 mins in presence of [gamma-32P]ATP by radiometric scintillation assay
[5] = molecular target: Serine/threonine-protein kinase pim-1 (Homo sapiens, UniProt P11309); experiment: Inhibition of human full length-His6 tagged PIM1 (1 to 312 residues) expressed in Escherichia coli BL21 (DE3) assessed as inhibition constant using RSRHSSYPAGT as peptide substrate incubated for 10 mins in presence of [gamma-32P]ATP by radiometric scintillation assay
[6] = molecular target: Serine/threonine-protein kinase pim-2 (Homo sapiens, UniProt Q9P1W9); experiment: Inhibition of human full length-His6 tagged PIM2 (1 to 311 residues) expressed in Escherichia coli BL21 (DE3) assessed as inhibition constant using RSRHSSYPAGT as peptide substrate incubated for 10 mins in presence of [gamma-32P]ATP by radiometric scintillation assay
[7] = molecular target: T1, Death-associated protein kinase 1; experiment: Inhibition of DAPK1 (unknown origin) in presence of 33P-ATP radiolabeled kinase assay
[8] = molecular target: Death-associated protein kinase 2 (Homo sapiens, UniProt Q9UIK4); experiment: Binding affinity to DAPK2 (unknown origin) assessed as dissociation constant
[9] = molecular target: T3, Death-associated protein kinase 3; experiment: Binding affinity to DAPK3 (unknown origin) assessed as dissociation constant
[10] = molecular target: T1, Death-associated protein kinase 1; experiment: Inhibition of DAPK1 (unknown origin) at 10 uM by (33P-ATP) filter-binding assay relative to control
[11] = molecular target: T2, Serine/threonine-protein kinase pim-3; experiment: Inhibition of PIM3 (unknown origin) at 10 uM by (33P-ATP) filter-binding assay relative to control
[12] = molecular target: T4, Serine/threonine-protein kinase 17B (Homo sapiens, UniProt O94768); experiment: Binding affinity to DRAK2 (unknown origin) assessed as dissociation constant
T4 sequence (O94768 whole entry): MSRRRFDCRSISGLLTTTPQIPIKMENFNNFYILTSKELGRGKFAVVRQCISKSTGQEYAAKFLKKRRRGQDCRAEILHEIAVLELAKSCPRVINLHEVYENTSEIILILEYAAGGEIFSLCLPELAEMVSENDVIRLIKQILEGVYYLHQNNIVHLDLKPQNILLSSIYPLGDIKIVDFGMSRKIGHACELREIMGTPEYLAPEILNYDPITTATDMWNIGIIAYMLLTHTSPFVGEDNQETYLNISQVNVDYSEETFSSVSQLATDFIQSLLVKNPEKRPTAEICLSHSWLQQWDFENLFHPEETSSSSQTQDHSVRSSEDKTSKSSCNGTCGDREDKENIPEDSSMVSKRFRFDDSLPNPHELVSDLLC

[13] = molecular target: T5, Serine/threonine-protein kinase 17A (Homo sapiens, UniProt Q9UEE5); experiment: Inhibition of DRAK1 (unknown origin)
T5 sequence (Q9UEE5 whole entry): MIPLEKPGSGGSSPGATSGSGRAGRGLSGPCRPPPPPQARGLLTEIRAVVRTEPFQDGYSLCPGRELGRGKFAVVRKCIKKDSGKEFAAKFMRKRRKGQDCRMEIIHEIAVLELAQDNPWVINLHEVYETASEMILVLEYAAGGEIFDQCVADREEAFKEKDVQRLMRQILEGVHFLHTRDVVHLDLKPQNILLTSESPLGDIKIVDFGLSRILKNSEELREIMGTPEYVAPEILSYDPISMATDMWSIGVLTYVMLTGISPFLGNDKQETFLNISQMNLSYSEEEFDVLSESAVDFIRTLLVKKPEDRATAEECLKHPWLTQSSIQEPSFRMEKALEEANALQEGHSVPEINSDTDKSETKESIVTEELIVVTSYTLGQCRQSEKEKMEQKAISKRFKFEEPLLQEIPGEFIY

[14] = molecular target: T3, Death-associated protein kinase 3; experiment: Inhibition of DAPK3 (unknown origin)
[15] = molecular target: T4, Serine/threonine-protein kinase 17B; experiment: Inhibition of DRAK2 (unknown origin)
[16] = molecular target: T4, Serine/threonine-protein kinase 17B; experiment: Inhibition of recombinant GST-tagged DRAK2 (unknown origin) by promega ADP-Glo assay

`COc1cc(-c2ccc3ncc(-c4ccc(C(=O)NCCN(C)C)cc4)n3n2)ccc1O` was tested, and the pIC50 [1] was 6.61.
`Nc1c(O)c(S(=O)(=O)O)c(O)c2c1C(=O)c1ccccc1C2=O` gave a pIC50 [2] of 5.02.
With `CC(C)(Sc1nc2c(cnn2-c2ccccc2)c(=O)[nH]1)C(N)=O` the pKi [3] was 5.60, the pKi [4] was 6.90 and the pKi [5] was 5.20. The pKi [6] was less than 4.00.
`CC(C)(C)n1c(-c2ccccc2)nc2c(OCc3ccccc3)ncnc21` showed a pIC50 [7] of 5.60.
Work on `O=C1c2ccccc2C(=O)c2c1ccc(O)c2O` [ATHRAQUINONES A] yielded a pIC50 [2] of 5.44.
Work on `CC(Sc1nc2c(cnn2-c2cccc(Cl)c2)c(=O)[nH]1)C(N)=O` (stereo not given) yielded a pKi [3] of less than 4.00, a pKd [8] of 7.10 and a pKi [4] of 6.59. For the same molecule, the pKd [9] was 6.55, the inhibition [10] was 89% and the pKi [5] was 5.53. The inhibition [11] was 76% and the pKi [6] was 6.68.
`CCC(Sc1nc2c(cnn2-c2cccc(F)c2)c(=O)[nH]1)C(N)=O` (stereo not given) was tested, and the pKi [3] was 5.97, the pKi [4] was 6.92 and the pKi [5] was 5.19. The pKi [6] was less than 4.00.
With `N#CCSc1nc2c(cnn2-c2cccc(Cl)c2)c(=O)[nH]1` the pKi [3] was 7.14, the pKi [4] was 6.50 and the pKi [5] was 5.83. For the same molecule, the pKi [6] was 4.76.
Work on `Cc1nc2c(OCc3ccccc3)ncnc2n1C(C)C` yielded a pIC50 [7] of 4.64.
In the case of `c1ccc(COc2ncnc3c2ncn3Cc2ccccc2)cc1`, the pIC50 [7] was 5.23.
Molecule `Nc1c(-c2n[nH]c(=S)o2)sc2ccc(Cl)cc12` has a pKd [12] of 6.60.
In the case of `Nc1c(-c2n[nH]c(=S)o2)sc2ncc(-c3ccsc3)cc12`, the pKd [12] was 8.10.
For `O=C1c2ccccc2C(=O)c2c(O)c(O)cc(O)c21` [PURPURIN], the pIC50 [2] was 6.05.
`COc1cnc(Nc2ccc(CS(C)(=O)=O)cc2)nc1Nc1cc(C2CC2)[nH]n1` gave a pIC50 [13] of 7.00, a pIC50 [1] of 6.43 and a pIC50 [14] of 6.51. For the same molecule, the pIC50 [15] was 8.00.
`COC(=O)C1=C2Nc3ccccc3C23CC2N(C)[C@H]3C[C@H]1[C@@]2(C)C(C)=O` (stereo not given in full) gave a pIC50 [16] of 4.93.
`CCc1ccccc1-c1nn(CCCCCCCCCCC(=O)Nc2cnnc(-c3ccccc3)c2)c(=N)cc1C` was tested, and the pIC50 [1] was 4.89.
